We go through 11 compounds from patent US11986471B2, “Compounds and methods of use” (Tango Therapeutics, Inc., priority 2018, dated 2024).

Assay [1] has as its system HAP1 MTAP-intact. As to the kind of experiment: SDMA in-cell western assay, HAP1 MTAP-intact cell line. The settings on record: Homo sapiens. It is filed as cell-based. A digest of the protocol: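 Symmetric dimethylarginine (SDMA) levels were measured by in-cell western in an isogenic HAP1 pair, one expressing endogenous MTAP and one MTAP-null, and IC50 values were derived for each line. Compounds whose IC50 ratio between the lines is 3-fold or more are classed as MTAP-selective.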

Assay [2] deals with T1, PRMT5 (Homo sapiens, UniProt O14744).
T1 construct: purchased Viva (custom protein)
T1 sequence (O14744 whole entry): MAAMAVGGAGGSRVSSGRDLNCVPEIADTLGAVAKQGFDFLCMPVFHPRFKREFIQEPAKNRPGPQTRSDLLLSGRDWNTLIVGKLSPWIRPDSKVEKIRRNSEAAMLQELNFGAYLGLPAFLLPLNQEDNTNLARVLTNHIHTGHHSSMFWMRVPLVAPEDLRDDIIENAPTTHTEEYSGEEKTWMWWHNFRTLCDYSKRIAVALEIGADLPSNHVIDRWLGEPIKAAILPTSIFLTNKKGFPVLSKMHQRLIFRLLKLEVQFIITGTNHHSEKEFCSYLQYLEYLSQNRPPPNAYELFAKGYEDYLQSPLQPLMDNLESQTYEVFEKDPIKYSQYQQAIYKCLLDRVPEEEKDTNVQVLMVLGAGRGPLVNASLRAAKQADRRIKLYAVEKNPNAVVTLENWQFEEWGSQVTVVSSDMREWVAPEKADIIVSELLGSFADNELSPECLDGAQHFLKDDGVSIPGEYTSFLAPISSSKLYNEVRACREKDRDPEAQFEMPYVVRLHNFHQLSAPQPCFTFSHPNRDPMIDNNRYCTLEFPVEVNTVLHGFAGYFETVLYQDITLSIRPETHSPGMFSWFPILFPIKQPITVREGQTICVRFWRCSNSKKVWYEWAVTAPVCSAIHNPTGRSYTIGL
T1 sequence (Q9BQA1 whole entry partner): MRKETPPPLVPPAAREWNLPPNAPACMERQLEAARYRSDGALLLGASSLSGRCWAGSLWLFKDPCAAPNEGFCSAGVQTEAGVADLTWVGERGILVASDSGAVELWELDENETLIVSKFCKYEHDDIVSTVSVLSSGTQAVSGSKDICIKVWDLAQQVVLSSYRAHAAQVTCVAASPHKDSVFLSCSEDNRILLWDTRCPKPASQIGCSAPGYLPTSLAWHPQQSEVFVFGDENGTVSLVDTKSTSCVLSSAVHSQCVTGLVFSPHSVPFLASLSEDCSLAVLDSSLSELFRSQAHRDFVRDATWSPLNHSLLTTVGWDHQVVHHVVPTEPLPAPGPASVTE
As to the kind of experiment: PRMT5 IC50 assay in the presence of SAM as cofactor. Format: biochemical. A digest of the protocol:
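For the SAM-containing format, dividing IC50 by 1.5 yields Ki; for the MTA-containing format the divisor is 13.5. A third format without cofactor gives IC50 alone.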

The target of assay [3] is T1, PRMT5. The assay can be described thus: PRMT5 IC50 assay with no cofactor. It is filed as biochemical. A digest of the protocol:
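Human PRMT5 inhibition, IC50 in μM; cofactor varied (SAM / MTA / none).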

Assay [4] concerns HAP1 MTAP-deleted. The assay can be described thus: SDMA in-cell western assay, HAP1 MTAP-deleted cell line. Format: cell-based. As to conditions: for IC50: Homo sapiens, HAP1 MTAP-deleted cell line; for MTAP Intact/Deleted Ratio: IC50 ratio HAP1 MTAP-intact / HAP1 MTAP-deleted. A digest of the protocol: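 Symmetric dimethylarginine (SDMA) levels were measured by in-cell western in MTAP-null HAP1 cells, one half of an MTAP-isogenic pair whose partner line expresses endogenous MTAP. Compound potency is reported as IC50.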

Assay [5] has as its target T1, PRMT5. As to the kind of experiment: PRMT5 IC50 assay in the presence of MTA as cofactor. The settings on record: for IC50: PRMT5, MTA as cofactor. Format: biochemical. A digest of the protocol: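 IC50 against PRMT5 determined with SAM as cofactor, with no cofactor, and with MTA as cofactor. Ki derived as IC50/1.5 for the SAM assay and IC50/13.5 for the MTA assay; SAM Ki to MTA Ki ratio also reported.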

The mark [6] stands for this setting: ratio between the Ki in the presence of SAM and the Ki in the presence of MTA.
Where [7] appears, read: ratio between Ki in the presence of SAM and Ki in the presence of MTA.

A word on the IC50: it is the concentration that gives 50% inhibition.

With `Cc1ncoc1COc1ccc2c(c1Br)CCN(C[C@@H](O)CNC(=O)c1ccnc(NC3CCC3)c1)C2` [Compound 267, N-[(2S)-3-[5-bromo-6-[(4-methyloxazol-5-yl)methoxy]-3,4-dihydro-1H-isoquinolin-2-yl]-2-hydroxy-propyl]-2-(cyclobutylamino)pyridine-4-carboxamide], the IC50 in assay [1] was at least 10000 nM; in assay [2], 500 to 5000 nM; in assay [3] (read-out: No Co-factor IC50), at least 5000 nM; in assay [4], at least 10000 nM; in assay [5] it was 50 to 500 nM. The “MTAP Intact/Deleted Ratio” value in assay [4] is “C* (an IC50 ratio of less than 3 fold between the IC50 in the HAP1 MTAP-intact cell line and the HAP1 MTAP-deleted cell line)”.

For `CC(=O)N1CCC(Nc2ccnc(C(=O)NC[C@H](O)CN3CCc4c(ccc(OCc5cnco5)c4C)C3)c2)CC1` [Compound 559], the IC50 in assay [1] is at least 10000 nM; in assay [2], 50 to 500 nM; in assay [3] it was 500 to 5000 nM; in assay [4] it was 1000 to 10000 nM; in assay [5], 50 to 500 nM. Moreover, the “MTAP Intact/Deleted Ratio” value in assay [4] is “C* (an IC50 ratio of less than 3 fold between the IC50 in the HAP1 MTAP-intact cell line and the HAP1 MTAP-deleted cell line)”. In addition, the “SAM/MTA Ratio” value in assay [5] (setting [6]) was “A (a Ki ratio greater than or equal to 10 fold between the Ki in the presence of SAM and the Ki in the presence of MTA)”.

As for `O=C(NC[C@H](O)CN1CCc2cc(OCc3cnco3)cc(F)c2C1)c1ccnc(NC2CCC2)c1` [Compound 362, 2-(cyclobutylamino)-N-[(2S)-3-[8-fluoro-6-(oxazol-5-ylmethoxy)-3,4-dihydro-1H-isoquinolin-2-yl]-2-hydroxy-propyl]pyridine-4-carboxamide], the IC50 is below 1000 nM in assay [1]; 500 to 5000 nM in assay [2]; at least 5000 nM in assay [3] (read-out: No Co-factor IC50); 1000 to 10000 nM in assay [4]; 50 to 500 nM in assay [5]. Besides, the “MTAP Intact/Deleted Ratio” value in assay [4] is “C* (an IC50 ratio of less than 3 fold between the IC50 in the HAP1 MTAP-intact cell line and the HAP1 MTAP-deleted cell line)”. In addition, the “SAM/MTA Ratio” value in assay [5] (setting [7]) was “A (a Ki ratio greater than or equal to 10 fold between the Ki in the presence of SAM and the Ki in the presence of MTA)”.

Take `CCC(=O)N1CCN(c2cc(C(=O)NC[C@H](O)CN3CCc4c(ccc(OCc5cnco5)c4Cl)C3)cc(NC3CCC3)n2)CC1` [Compound 570, (S)—N-(3-(5-chloro-6-(oxazol-5-ylmethoxy)-3N-dihydroisoquinolin-2(1H)-yl)-2-hydroxypropyl)-2-(cyclobutylamino)-6-(4-propionylpiperazin-1-yl)isonicotinamide]: the IC50 in assay [1] is at least 10000 nM; in assay [2] it was 50 to 500 nM; in assay [3] it was 500 to 5000 nM; in assay [4] it was below 1000 nM; in assay [5], 50 to 500 nM. The “MTAP Intact/Deleted Ratio” value in assay [4] was “A* (an IC50 ratio greater than or equal to 10 fold between the IC50 in the HAP1 MTAP-intact cell line and the HAP1 MTAP-deleted cell line)”. Also, the “SAM/MTA Ratio” value in assay [5] (setting [6]) was “A (a Ki ratio greater than or equal to 10 fold between the Ki in the presence of SAM and the Ki in the presence of MTA)”.

With `Cc1c(OCc2cnco2)ccc2c1CCN(C[C@@H](O)CNC(=O)c1ccnc(NC3CN(C(=O)CC(C)C)C3)c1)C2` [Compound 522, (S)—N-(2-hydroxy-3-(5-methyl-6-(oxazol-5-ylmethoxy)-3N-dihydroisoquinolin-2(1H)-yl)propyl)-2-((1-(3-methylbutanoyl)azetidin-3-yl)amino)isonicotinamide], the IC50 in assay [1] was at least 10000 nM; in assay [2], 50 to 500 nM; in assay [3] it was at least 5000 nM; in assay [4], at least 10000 nM; in assay [5], 50 to 500 nM. Moreover, the “MTAP Intact/Deleted Ratio” value in assay [4] is “C* (an IC50 ratio of less than 3 fold between the IC50 in the HAP1 MTAP-intact cell line and the HAP1 MTAP-deleted cell line)”. The “SAM/MTA Ratio” value in assay [5] (setting [6]) was “A (a Ki ratio greater than or equal to 10 fold between the Ki in the presence of SAM and the Ki in the presence of MTA)”.

In the case of `CC(=O)N1CCC(Nc2cc(C(=O)NC[C@H](O)CN3CCc4c(ccc(OCc5ocnc5C)c4Cl)C3)ncn2)CC1` [Compound 256, (S)-6-((1-acetylpiperidin-4-yl)amino)-N-(3-(5-chloro-6-((4-methyloxazol-5-yl)methoxy)-3N-dihydroisoquinolin-2(1H)-yl)-2-hydroxypropyl)pyrimidine-4-carboxamide], the IC50 in assay [1] was at least 10000 nM; in assay [2], 50 to 500 nM; in assay [3] (read-out: No Co-factor IC50) it was at least 5000 nM; in assay [4] it was 1000 to 10000 nM; in assay [5] it was 50 to 500 nM. The “MTAP Intact/Deleted Ratio” value in assay [4] was “C* (an IC50 ratio of less than 3 fold between the IC50 in the HAP1 MTAP-intact cell line and the HAP1 MTAP-deleted cell line)”. Further, in assay [5] (setting [7]), the “SAM/MTA Ratio” value is “A (a Ki ratio greater than or equal to 10 fold between the Ki in the presence of SAM and the Ki in the presence of MTA)”.

In the case of `CCCN(C)c1nc(NC2COC2)cc(C(=O)NC[C@H](O)CN2CCc3cc(OCc4ocnc4C)ccc3C2)n1` [Compound 390, N-[(2S)-2-hydroxy-3-{6-[(4-methyl-1,3-oxazol-5-yl)methoxy]-1,2,3,4-tetrahydroisoquinolin-2-yl}propyl]-2-[methyl(propyl)amino]-6-[(oxetan-3-yl)amino]pyrimidine-4-carboxamide], the IC50 in assay [1] is below 1000 nM; in assay [2] it was 50 to 500 nM; in assay [3] (read-out: No Co-factor IC50) it was 500 to 5000 nM; in assay [4], below 1000 nM; in assay [5], 50 to 500 nM. The “MTAP Intact/Deleted Ratio” value in assay [4] is “C* (an IC50 ratio of less than 3 fold between the IC50 in the HAP1 MTAP-intact cell line and the HAP1 MTAP-deleted cell line)”. Besides, the “SAM/MTA Ratio” value in assay [5] (setting [7]) was “A (a Ki ratio greater than or equal to 10 fold between the Ki in the presence of SAM and the Ki in the presence of MTA)”.

With `CC(=O)N1CCC(Nc2cc(C(=O)NC[C@H](O)CN3CCc4c(ccc(OCc5ocnc5C)c4C)C3)ncn2)CC1` [Compound 274, (S)-6-((1-acetylpiperidin-4-yl)amino)-N-(2-hydroxy-3-(5-methyl-6-((4-methyloxazol-5-yl)methoxy)-3,4-dihydroisoquinolin-2(1H)-yl)propyl)pyrimidine-4-carboxamide], the IC50 was at least 10000 nM in assay [1]; 50 to 500 nM in assay [2]; at least 5000 nM in assay [3] (read-out: No Co-factor IC50); 1000 to 10000 nM in assay [4]; 50 to 500 nM in assay [5]. The “MTAP Intact/Deleted Ratio” value in assay [4] was “C* (an IC50 ratio of less than 3 fold between the IC50 in the HAP1 MTAP-intact cell line and the HAP1 MTAP-deleted cell line)”. For the same compound, the “SAM/MTA Ratio” value in assay [5] (setting [7]) is “A (a Ki ratio greater than or equal to 10 fold between the Ki in the presence of SAM and the Ki in the presence of MTA)”.

Take `Cc1ncoc1COc1ccc2c(c1)CCN(C[C@@H](O)CNC(=O)c1ccc3c(c1)CCN(C(=O)c1ccc(Br)cc1)C3)C2` [Compound 493]: the IC50 is 1000 to 10000 nM in assay [1]; 50 to 500 nM in assay [2]; 500 to 5000 nM in assay [3]; below 1000 nM in assay [4]; below 50 nM in assay [5]. In assay [4], the “MTAP Intact/Deleted Ratio” value is “B* (an IC50 ratio greater than or equal to 3 fold but lower than 10 fold between the IC50 in the HAP1 MTAP-intact cell line and the HAP1 MTAP-deleted cell line)”. For the same compound, in assay [5] (setting [6]), the “SAM/MTA Ratio” value was “A (a Ki ratio greater than or equal to 10 fold between the Ki in the presence of SAM and the Ki in the presence of MTA)”.

Take `COc1cnc(NC2CCN(C(C)=O)CC2)cc1C(=O)NC[C@H](O)CN1CCc2cc(OCc3ocnc3C)ccc2C1` [Compound 597, (S)-2-((1-acetylpiperidin-4-yl)amino)-N-(2-hydroxy-3-(6-((4-methyloxazol-5-yl)methoxy)-3,4-dihydroisoquinolin-2(1H)-yl)propyl)-5-methoxyisonicotinamide]: the IC50 in assay [1] is 1000 to 10000 nM; in assay [2] it was 50 to 500 nM; in assay [3], 50 to 500 nM; in assay [4], below 1000 nM; in assay [5], below 50 nM. Also, the “MTAP Intact/Deleted Ratio” value in assay [4] was “B* (an IC50 ratio greater than or equal to 3 fold but lower than 10 fold between the IC50 in the HAP1 MTAP-intact cell line and the HAP1 MTAP-deleted cell line)”. The “SAM/MTA Ratio” value in assay [5] (setting [6]) was “A (a Ki ratio greater than or equal to 10 fold between the Ki in the presence of SAM and the Ki in the presence of MTA)”.

In the case of `Cc1ncoc1COc1cc2c(cc1F)CN(C[C@@H](O)CNC(=O)c1ccc3c(c1)CCN(C(=O)c1ccc(Br)cc1)C3)CC2` [Compound 578, 2-(4-bromobenzoyl)-N-[(2S)-3-[7-fluoro-6-[(4-methyloxazol-5-yl)methoxy]-3,4-dihydro-1H-isoquinolin-2-yl]-2-hydroxy-propyl]-3,4-dihydro-1H-isoquinoline-6-carboxamide], the IC50 in assay [1] lay in the range of 1000 to 10000 nM; in assay [2], 50 to 500 nM; in assay [3] it was 500 to 5000 nM; in assay [4], 1000 to 10000 nM; in assay [5], 50 to 500 nM. In addition, the “MTAP Intact/Deleted Ratio” value in assay [4] is “B* (an IC50 ratio greater than or equal to 3 fold but lower than 10 fold between the IC50 in the HAP1 MTAP-intact cell line and the HAP1 MTAP-deleted cell line)”. Also, the “SAM/MTA Ratio” value in assay [5] (setting [6]) was “A (a Ki ratio greater than or equal to 10 fold between the Ki in the presence of SAM and the Ki in the presence of MTA)”.
